Measurements published in patent publication US12473350B2, “Recombinant humanized type III collagen microsphere with innovative spatial structure, and design, preparation process and usethereof” (Nanjing Tzone Biotechnology Co., Ltd., priority 2023, dated 2025).

Tested on: Human skin fibroblasts (HSF cells)
Assay: MTT assay, effect on HSF cell growth
Assay type: cell-based
Conditions: 10% DMSO
Procedure: Dimethyl sulfoxide (DMSO) can dissolve formazan in cells, and its light absorption value can be measured at a wavelength of […] using an enzyme-linked immunosorbent assay, which can indirectly reflect the number of live cells. Within a certain range of cell numbers, the amount of MTT crystals formed is proportional to the number of cells.
Logarithmic phase cells are collected and the cell suspension concentration is adjusted. 100 μL of cell suspension is added per well and plated to adjust the density of the cells to be tested to 10,000 cells/well, and the edge wells are filled with sterile PBS. The cells are incubated under 5% CO2 at 37° C. until the cell monolayer spreads over all the bottom of the wells. Then, the drug in a concentration gradient is added; in principle, the drug can be added once the cells have adhered, with five parallel settings. The incubation is performed under 5% CO2 at 37° C. for 24 h or 48 h and the cells are observed under an inverted microscope. 20 μL of MTT solution (5 mg/mL, i.e., 0.5% MTT) is added to each well and the incubation is continued for 4 h. […] The light absorption value of each well is measured at […] using an Enzyme-Linked Immunosorbent Assay (ELISA) reader. […]

## C[S+](C)[O-] [DMSO, Dimethyl Sulfoxide, reference compound]
24 h
  RGR (24 h): 28.20%
48 h
  RGR (48 h): 17.15%
